Assay results published in PubChem BioAssay (NCI).
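These data come from cells grown in 96-well plates and exposed to compound for 48 hours at five concentrations. At the TGI there is no net growth.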

How the values were obtained:
Assay in all cases: NCI anticancer screen, dose series, 48 h
SK-MEL-2 melanoma = system: SK-MEL-2 melanoma
ACHN renal = system: ACHN renal
DLD-1 colon = system: DLD-1 colon
IGROV1 ovarian = system: IGROV1 ovarian
786-0 renal = system: 786-0 renal
SF-295 CNS = system: SF-295 CNS
HT29 colon = system: HT29 colon
SK-OV-3 ovarian = system: SK-OV-3 ovarian
M14 melanoma = system: M14 melanoma
OVCAR-4 ovarian = system: OVCAR-4 ovarian
LXFL 529 NSCLC = system: LXFL 529 NSCLC
SNB-19 CNS = system: SNB-19 CNS
K-562 leukemia = system: K-562 leukemia
COLO 205 colon = system: COLO 205 colon
HL-60(TB) leukemia = system: HL-60(TB) leukemia
OVCAR-5 ovarian = system: OVCAR-5 ovarian
HOP-92 NSCLC = system: HOP-92 NSCLC
UACC-257 melanoma = system: UACC-257 melanoma
MALME-3M melanoma = system: MALME-3M melanoma
XF 498 CNS = system: XF 498 CNS
SF-539 CNS = system: SF-539 CNS
SK-MEL-28 melanoma = system: SK-MEL-28 melanoma
OVCAR-3 ovarian = system: OVCAR-3 ovarian
CAKI-1 renal = system: CAKI-1 renal
OVCAR-8 ovarian = system: OVCAR-8 ovarian
RXF-631 renal = system: RXF-631 renal
SF-268 CNS = system: SF-268 CNS
SNB-75 CNS = system: SNB-75 CNS
SW-620 colon = system: SW-620 colon
KM20L2 colon = system: KM20L2 colon
CCRF-CEM leukemia = system: CCRF-CEM leukemia
EKVX NSCLC = system: EKVX NSCLC
SN12C renal = system: SN12C renal
DMS 114 small cell lung = system: DMS 114 small cell lung
RXF 393 renal = system: RXF 393 renal
LOX IMVI melanoma = system: LOX IMVI melanoma
NCI-H522 lung = system: NCI-H522 lung
RPMI-8226 leukemia = system: RPMI-8226 leukemia
NCI-H226 lung = system: NCI-H226 lung
HCC-2998 colon = system: HCC-2998 colon
HOP-62 NSCLC = system: HOP-62 NSCLC
TK-10 renal = system: TK-10 renal
M19-MEL melanoma = system: M19-MEL melanoma
A549 NSCLC = system: A549 NSCLC
SK-MEL-5 melanoma = system: SK-MEL-5 melanoma
UACC-62 melanoma = system: UACC-62 melanoma
NCI-H23 lung = system: NCI-H23 lung

## CN(C)CC(/C(Cc1ccccc1)=N\NC(=O)c1ccncc1)c1ccccc1 (configuration not stated)
SK-MEL-2 melanoma
  TGI: 42.1 µM
ACHN renal
  TGI: 97.7 µM
DLD-1 colon
  TGI: > 100 µM
IGROV1 ovarian
  TGI: > 100 µM
786-0 renal
  TGI: > 100 µM
SF-295 CNS
  TGI: 68.3 µM
HT29 colon
  TGI: > 100 µM
SK-OV-3 ovarian
  TGI: > 100 µM
M14 melanoma
  TGI: > 100 µM
OVCAR-4 ovarian
  TGI: > 100 µM
LXFL 529 NSCLC
  TGI: > 100 µM
SNB-19 CNS
  TGI: > 100 µM
K-562 leukemia
  TGI: > 100 µM
COLO 205 colon
  TGI: > 100 µM
HL-60(TB) leukemia
  TGI: 32 µM
OVCAR-5 ovarian
  TGI: > 100 µM
HOP-92 NSCLC
  TGI: > 100 µM
UACC-257 melanoma
  TGI: > 100 µM
MALME-3M melanoma
  TGI: 93.4 µM
XF 498 CNS
  TGI: > 100 µM
SF-539 CNS
  TGI: > 100 µM
SK-MEL-28 melanoma
  TGI: > 100 µM
OVCAR-3 ovarian
  TGI: > 100 µM
CAKI-1 renal
  TGI: > 100 µM
OVCAR-8 ovarian
  TGI: > 100 µM
RXF-631 renal
  TGI: > 100 µM
SF-268 CNS
  TGI: > 100 µM
SNB-75 CNS
  TGI: 92.8 µM
SW-620 colon
  TGI: > 100 µM
KM20L2 colon
  TGI: 92.3 µM
CCRF-CEM leukemia
  TGI: > 100 µM
EKVX NSCLC
  TGI: 68.1 µM
SN12C renal
  TGI: > 100 µM
DMS 114 small cell lung
  TGI: 81.8 µM
RXF 393 renal
  TGI: > 100 µM
LOX IMVI melanoma
  TGI: > 100 µM
NCI-H522 lung
  TGI: > 100 µM
RPMI-8226 leukemia
  TGI: 51.6 µM
NCI-H226 lung
  TGI: > 100 µM
HCC-2998 colon
  TGI: > 100 µM
HOP-62 NSCLC
  TGI: > 100 µM
TK-10 renal
  TGI: > 100 µM
M19-MEL melanoma
  TGI: > 100 µM
A549 NSCLC
  TGI: > 100 µM
SK-MEL-5 melanoma
  TGI: 46.2 µM
UACC-62 melanoma
  TGI: > 100 µM
NCI-H23 lung
  TGI: > 100 µM
